# Assays:
# [1] = system: cellular protein sulfenic acids; conditions: generally; not under the conditions of intracellular bioorthogonal chemistry (generally ≤10 μM); cited from earlier work
# [2] = 4a with a PEGylated amide of 20 in 100% H2O, previously measured (Darko et al.); cited from earlier work
# [3] = Stability with mercaptoethanol (25 mM) in phosphate buffered D2O, pD=7.4; assay type: physicochemical; conditions: 25 mM mercaptoethanol
# Description: (§1) Phosphate buffered D2O (pD=7.4) was prepared by combining anhydrous sodium dihydrogen phosphate (NaH2PO4, 77.1 mg) and anhydrous disodium hydrogen phosphate (Na2HPO4, 204.4 mg) with 20 mL of D2O to make a 0.1 M solution. The pD was measured on a Fisher Scientific AB15 Plus pH meter and pH values were converted to pD by adding 0.4 units. The pD was adjusted to 7.4 with DCI (35 wt. % in D2O) and NaOD (40 wt. % in D2O) as necessary.
# TCO 14 (3.1 mg, 18 μmol) in a solution of mercaptoethanol in phosphate buffered D2O (720 μL, 18 μmol, 25 mM, pD=7.4) was monitored by quantitative 1H NMR on a 600 MHz instrument to observe the decomposition of the trans-isomer over time. Methyl tert-butyl ether (2.1 μL, 18 μmol) was used as an internal standard. After 4 hours, 93% of 14 remained and 49% of 14 remained after 20 hours. (FIG. 6C). The results were plotted using Prism software (Version 8.00, GraphPad Software Inc). A waterfall plot of the ^1H NMR spectra is provided.
# TCO 4a (2.3 mg, 18 μmol) in a solution of mercaptoethanol in phosphate buffered D2O (720 μL, 18 μmol, 25 mM, pD=7.4) was monitored by quantitative 1H NMR on a 600 MHz instrument to observe the decomposition of the trans-isomer over time. Methyl tert-butyl ether (2.1 μL, 18 μmol) was used as an internal standard. After 4 hours, 89% of 4a and 49% of 4a remained after 20 hours. (FIG. 6C). The results were plotted using Prism software (Version 8.00, GraphPad Software Inc). A waterfall plot of the ^1H NMR spectra is provided.
# [4] = Stopped-flow kinetics of the Diels-Alder reaction with tetrazine 20; assay type: physicochemical; conditions: 4a, 10 μM tetrazine, 95:5 PBS/MeOH, 25° C., in s-1 (unit assumed)
# [5] = Stability in methanol-d4 (35 mM) by quantitative 1H NMR; assay type: physicochemical; conditions: 35 mM in methanol-d4, after 7 days
# Description: (§2) A solution of 14 (4.5 mg, 26 μmol) in methanol-d4 (750 μL) was monitored by quantitative ^1H NMR on a 600 MHz instrument to observe the decomposition of the trans-isomer over time. Methyl tert-butyl ether (3.1 μL, 26 μmol) was used as an internal standard. […] The results were plotted using Prism software (Version 8.00, GraphPad Software Inc). A waterfall plot of the ^1H NMR spectra is provided.
# as §2, with “4a (3.3” for “14 (4.5”
# [6] = Stopped-flow kinetics of the Diels-Alder reaction with tetrazine 20; assay type: physicochemical; conditions: toward tetrazine 20, stopped flow, 25° C., 95:5 PBS:MeOH
# Description: The kinetics for the reaction of a-TCO derivative 14 toward a 3,6-dipyridyl-s-tetrazinyl succinamic acid derivative 20 were measured by stopped flow kinetics at 25° C. in 95:5 PBS:MeOH (FIG. 4A).
# Stopped-flow kinetics measurements were performed on a SX18MV-R stopped-flow spectrophotometer (Applied Photophysics Ltd.) with temperature control (25° C.).
# The reaction between 5-ax-hydroxy-5-eq-(2-hydroxyethyl)-trans-cyclooctene 14 and 3,6-dipyridyl-s-tetrazine-mono-succinamic acid 20 was monitored by a SX18MV-R stopped-flow spectrophotometer (Applied Photophysics Ltd.) at 325 nm by measuring the exponential decay of tetrazine under pseudo-first order conditions. Solutions of 14 (0.98, 1.46, 1.95, and 2.63 mM in 9:1 PBS/MeOH) and tetrazine (0.1 mM in PBS) were mixed in the stopped-flow spectrophotometer in equal volumes resulting in final concentrations of 0.49 mM, 0.73 mM, 0.97 mM, and 1.31 mM of 14 and 0.05 mM of tetrazine in 95:5 PBS/MeOH. Three independent samples were prepared for each TCO concentration and measurements were taken in duplicate every 0.1 ms for 0.1 sat 25° C. The observed rates kobs for each run were determined by nonlinear regression analysis of the data points using Prism software (Version 8.00, GraphPad Software Inc). The average kobs values were plotted against the concentrations of 14 to obtain the bimolecular rate constant k2 from the slope of the plot.
# The observed rates (kobs) of 5-ax-hydroxy-5-eq-(2-hydroxyethyl)-trans-cyclooctene 14 (10-30 equivalents) and 3,6-dipyridyl-s-tetrazine-mono-succinamic acid 20 were measured using stopped-flow kinetics. The final concentrations of 14 after injection were (A) 0.49 mM, (B) 0.73 mM, (C) 0.97 mM, and (D) 1.31 mM and the concentration of tetrazine was 0.05 mM in 95:5 PBS/MeOH at 25° C. Duplicate measurements were obtained for three independent samples for each concentration of 14.
# The reaction between 5-ax-hydroxy-trans-cyclooctene 4a and 3,6-dipyridyl-s-tetrazine-mono-succinamic acid 20 was monitored by a SX18MV-R stopped-flow spectrophotometer (Applied Photophysics Ltd.) at 325 nm by measuring the exponential decay of tetrazine under pseudo-first order conditions. Solutions of 4a (100, 200, 300, and 400 μM in 9:1 PBS/MeOH) and tetrazine (20 μM in PBS) were mixed in the stopped-flow […] 95:5 PBS/MeOH. Three independent samples were prepared for each TCO concentration and measurements were taken in duplicate every 0.1 ms for 0.2 s at 25° C. The observed rates kobs for each run were determined by nonlinear regression analysis of the data points using Prism software (Version 8.00, GraphPad Software Inc). The average kobs values were plotted against the concentrations of 4a to obtain the bimolecular rate constant k2 from the slope of the plot.
# The observed rates (kobs) of 5-ax-hydroxy-trans-cyclooctene 4a (5-20 equivalents) and 3,6-dipyridyl-s-tetrazine-mono-succinamic acid 20 were measured using stopped-flow kinetics. […]
# [7] = Stability in phosphate buffered D2O, pD=7.4 (33 mM) by quantitative 1H NMR; assay type: physicochemical
# Description: as §1
# (§3) A solution of 14 (4.3 mg, 25 μmol) in phosphate buffered D2O (750 μL, pD=7.4) was monitored by quantitative ^1H NMR on a 600 MHz instrument to observe the decomposition of the trans-isomer over time. Methyl tert-butyl ether (3.0 μL, 26 μmol) was used as an internal standard. After 1 day, 90% of 14 remained and after 5 days, 39% remained (FIG. 6B). The results were plotted using Prism software (Version 8.00, GraphPad Software Inc). A waterfall plot of the ^1H NMR spectra is provided.
# as §3, with “4a (3.2” for “14 (4.3”, “85%” for “90%”, “4a” for “14”, “35%” for “39%”
# [8] = toward 20; no kinetic example for 4b in the patent, FIG. 4A footnotes cite earlier measurements in 100% H2O; cited from earlier work
compound,measurement,setting,value
"C#CCC1(O)CC/C=C/CCC1 (stereo not drawn) [Compound 5, 5-ax-Hydroxy-5-eq-propargyl-trans-cyclooctene]",TCO concentration at which sulfenic acids are modified,[1],≥ 500 µM
"OC1CC/C=C/CCC1 (stereo not drawn) [Compound 4a, 5-ax-Hydroxy-trans-cyclooctene]",k2,[2],"80,200"
same,TCO remaining,"[3]; phosphate buffered D2O pD 7.4, 4 hours",89%
same,TCO remaining,"[3]; phosphate buffered D2O pD 7.4, 20 hours",49%
same,Kobs,[4]; Table 2 head A (0.49 mM),3.407
same,Kobs,[4]; Table 2 head B (0.73 mM),6.966
same,Kobs,[4]; Table 2 head C (0.97 mM),10.09
same,Kobs,[4]; Table 2 head D (1.31 mM),13.86
same,decomposition of the trans-isomer,[5],no observable decomposition
same,second-order rate constant k2,[6],"70,000±1800 M^−1s^−1"
same,TCO remaining,"[7]; phosphate buffered D2O pD 7.4, 1 day (24 h), room temperature",85%
same,TCO remaining,"[7]; phosphate buffered D2O pD 7.4, 5 days",35%
"OC1CC/C=C/CCC1 (stereo not drawn) [Compound 4b, equatorial-5-hydroxy-trans-cyclooctene]","second-order rate constant k2 (equatorial isomer, comparison value)",[8],"22,400±40 M^−1s^−1"
